The values that follow come from PubChem BioAssay AID1421 (Emory University Molecular Libraries Screening Center, 2008).

Activity calls are given as the source filed them. The rule behind the calls is not given here.

Sequence of Prostaglandin E2 receptor EP2 subtype (Homo sapiens) (P43116 whole entry, looked up): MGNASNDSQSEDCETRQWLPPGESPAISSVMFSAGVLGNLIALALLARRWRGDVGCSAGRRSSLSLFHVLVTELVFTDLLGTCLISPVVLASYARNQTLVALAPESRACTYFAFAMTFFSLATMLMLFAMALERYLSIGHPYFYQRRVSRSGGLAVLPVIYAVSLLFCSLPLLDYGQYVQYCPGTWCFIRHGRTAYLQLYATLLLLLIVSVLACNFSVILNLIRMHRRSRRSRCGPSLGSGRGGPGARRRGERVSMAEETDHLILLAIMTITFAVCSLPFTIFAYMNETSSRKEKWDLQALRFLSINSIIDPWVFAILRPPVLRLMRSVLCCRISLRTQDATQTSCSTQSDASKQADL

The first test concerns the target Prostaglandin E2 receptor EP2 subtype (Homo sapiens) (UniProt P43116). Description: compounds shifting PGE2 potency at EP2 – cell-based, human EP2, PGE2 EC50 shift, dose response (AID 1421). As to conditions: EP2-expressing cells, PGE2 EC50 shift by compound.
On to `Cc1ccc2nc(Nc3ccc4[nH]c(=O)[nH]c4c3)c(-n3nc(C)cc3C)nc2c1`, for which the result was active. The same measure, in the same setting: then `CC1CCc2c(sc(N)c2C(=O)OC(C)C)C1` (stereo unspecified), with “active”.

As for `CC(C)Sc1cc(N2CCOCC2)nc(-c2ccccc2)n1`, the outcome was active. Same read-out and setting: then `CC(C)CCn1c(=O)c2ccccc2c2ccccc2c1=O`, with “active”; and `CCSc1cc(N2CCOCC2)nc(-c2ccccc2)n1`, with “active”.

As to `COc1ccc2c(c1)c(=O)c(Br)c(C)n2Cc1ccccc1`, the result was active. `CN1CCCN(C(=O)Cc2c(Cl)cccc2Cl)c2nc3ccccc3nc21`: the outcome was active. Still for that read-out and setting: then `CCCc1cc(C(=O)OC)c(NC(=O)c2cc(C)on2)s1`, with “active”; and `O=c1c2ccccc2nc2n1C1(CCCCC1)Cc1ccccc1-2`, with “active”. On the same count and under the same terms, then `CCCCCc1ccc(-c2ccc(=O)[nH]n2)cc1`, with “active”.

For `O=C(Nc1cc(C(F)(F)F)ccc1-n1cncn1)c1ccc(-c2ccccc2)cc1`, the result was active. Still for that read-out and setting: then `Cc1ccc(C(=O)Nc2ccccc2C(=O)NCc2ccccc2)cc1`, with “active”.

Consider `Cc1ccc(C(=O)Nc2ccccc2N2CCCCC2)cc1[N+](=O)[O-]`, for which the result was active.

The test is the same for the next values; noted with them: EP2-expressing cells, PGE2 EC50 shift by compound; measured here: PGE2 EC50 at 6.7 uM compound.
As for `O=C1CCC(C(=O)OCC(=O)N2N=C3/C(=C/c4ccccc4)CCCC3C2c2ccccc2)N1` (stereo unspecified), the PGE2 EC50 with compound came out at 1.47 nM. The same measure, in the same setting: then `Cc1ccc2nc(Nc3ccc4[nH]c(=O)[nH]c4c3)c(-n3nc(C)cc3C)nc2c1`, with 2.69 nM. `Cc1ccc(N=Cc2cc(Cc3ccccc3Cl)cc([N+](=O)[O-])c2O)c(O)c1`: the PGE2 EC50 with compound is 0.6 nM. Still for that read-out and setting: then `CCOC(=O)CN(C(=O)CSc1nnc(Cc2ccccc2)n1-c1ccc(C)cc1)c1ccccc1`, with 1.48 nM. On the same count and under the same terms, then `CCc1cc2cc(C)cc(C)c2nc1SCC(=O)N1CCCC1`, with 3.07 nM; and `Clc1ccc(-c2nc3ccccn3c2CN2CCCCC2)cc1`, with 1.26 nM; and `CCOC(=O)c1c(NC(=O)Cn2nnc3ccccc32)sc2c1CCC(C)C2` (stereo unspecified), with 1.14 nM. Take `CN(Cc1c(C(=O)N2CCc3ccccc3C2)nc2ccc(Cl)cn12)C(C1CC1)C1CC1`: the PGE2 EC50 with compound turned out to be 0.9 nM. Same read-out and setting: then `CC1CCc2c(sc(N)c2C(=O)OC(C)C)C1` (stereo unspecified), with 0.91 nM; and `CCOC(=O)c1c(NC(=O)CSc2nnc(N)s2)sc(C)c1-c1ccc(C)cc1`, with 0.48 nM.

Regarding `CCOc1ccccc1C(=O)Nc1ccsc1C(=O)OC`, the PGE2 EC50 with compound turned out to be 1.32 nM. Turning to `CC(C)Sc1cc(N2CCOCC2)nc(-c2ccccc2)n1`, the PGE2 EC50 with compound came to 1.22 nM. In the case of `O=C(Nc1ccccc1N1CCCCC1)c1ccc(F)cc1`, the PGE2 EC50 with compound was determined as 1.01 nM.

As for `CC(C)CCn1c(=O)c2ccccc2c2ccccc2c1=O`, the PGE2 EC50 with compound turned out to be 1.07 nM.

For the molecule `CCSc1cc(N2CCOCC2)nc(-c2ccccc2)n1`, the PGE2 EC50 with compound stood at 1.02 nM. Still for that read-out and setting: then `COc1cc(/C=C/c2ccc3cccc([N+](=O)[O-])c3n2)ccc1OCC(=O)O`, with 1.64 nM; and `Cc1cc(C)c2cc(C)c(SCC(=O)NCc3ccco3)nc2c1`, with 1.03 nM; and `CCCOC(=O)c1ccc(NC(=O)c2cn(CC)c3nc(C)ccc3c2=O)cc1`, with 1.57 nM. Still for that read-out and setting: then `CCOC(=O)c1cnc2c(c(C)nn2C)c1Oc1ccc(Cl)cc1`, with 1.29 nM; and `CC(=O)OC[C@@]1(O)C[C@@]23CCC4c5ccoc5CC[C@]4(C)C2CC[C@@H]1C3` (stereo partly specified), with 0.85 nM.

With `Cc1ccc(S(=O)(=O)c2c(C)nn(-c3ccccc3)c2OC(=O)c2ccco2)cc1`, the PGE2 EC50 with compound was determined as 0.71 nM. On the same count and under the same terms, then `COc1ccc(C(=O)Nc2ccccc2N2CCCCC2)cc1[N+](=O)[O-]`, with 1.01 nM; and `COC(=O)CSc1nc(-c2ccccc2)nc2ccccc12`, with 1.02 nM.

Consider `COc1ccc2c(c1)c(=O)c(Br)c(C)n2Cc1ccccc1`, for which the PGE2 EC50 with compound amounted to 0.83 nM.

`Cc1ccc(-n2c(=S)[nH]c3c(oc4ccccc43)c2=O)cc1C`: the PGE2 EC50 with compound was determined as 1.76 nM.

With `CCn1c(=S)[nH]c2c(c1=O)C(C)(C)Cc1ccccc1-2`, the PGE2 EC50 with compound worked out at 0.76 nM. Still for that read-out and setting: then `CCOC(=O)COc1cc(Br)c(/C=N/Nc2ccccc2)cc1OC`, with 2.69 nM; and `Cc1ccc(N(Cc2ccccc2)Cc2ccccc2)cc1`, with 1.7 nM. Still for that read-out and setting: then `CN1CCCN(C(=O)Cc2c(Cl)cccc2Cl)c2nc3ccccc3nc21`, with 0.9 nM. On the same count and under the same terms, then `c1cncc(-c2nc(N3CCCCCC3)c3ccccc3n2)c1`, with 0.91 nM; and `COCC(=O)N(C)c1nnc(-c2cnc(C)cn2)s1`, with 1.36 nM; and `COc1cc2cc(Br)cc(Br)c2nc1C`, with 2.62 nM. In the case of `Cc1cc(Oc2ccccc2)nc(NCc2ccccc2)n1`, the PGE2 EC50 with compound came to 0.63 nM. Still for that read-out and setting: then `Cc1ccc(-n2c(SCC(N)=O)nc3c(c2=O)C2(CCCC2)Cc2ccccc2-3)cc1`, with 2.78 nM; and `CC(C)n1c2ccccc2c2nc3ccccc3nc21`, with 2.59 nM.

Take `COc1ccc(C2CC(C(F)(F)F)n3nc(C(N)=O)c(Cl)c3N2)cc1OC` (stereo unspecified): the PGE2 EC50 with compound came out at 0.71 nM.

For `Cc1ccccc1CSCC(=O)Nc1ccccc1-c1ccccc1`, the PGE2 EC50 with compound came to 1.02 nM. Take `CCOC(=O)CSc1nc(Cc2ccccc2)nc2ccccc12`: the PGE2 EC50 with compound was 1.15 nM.

In the case of `CCCc1cc(C(=O)OC)c(NC(=O)c2cc(C)on2)s1`, the PGE2 EC50 with compound was 0.7 nM. On the same count and under the same terms, then `O=c1c2ccccc2c(-c2ccc(Br)cc2)nn1Cc1ccccc1`, with 0.78 nM. As to `CCc1ccc2[nH]c(=O)c(CN(Cc3nnnn3C3CCCC3)C3CCCCC3)cc2c1`, the PGE2 EC50 with compound turned out to be 0.8 nM. On the same count and under the same terms, then `Cc1cc(C)c(C)c(Cn2c(CO)nc3ccccc32)c1C`, with 0.6 nM; and `O=c1c2ccccc2c(=O)n(Cc2ccccc2)n1Cc1ccccc1`, with 1.16 nM; and `CCOC(=O)c1ccccc1NC(=O)C(C)Oc1ccccc1` (stereo unspecified), with 1.35 nM. The same measure, in the same setting: then `CCOC(=O)c1c(N)sc2c1CCC(CC)C2` (stereo unspecified), with 1.5 nM. Same read-out and setting: then `C=C1CCC2C(CC2(C)C)C(=C)CC/C1=N/O` (stereo unspecified), with 1.61 nM; and `Cc1cc(C)cc(OC2CCCCC2NS(=O)(=O)c2ccccc2)c1` (stereo unspecified), with 1.62 nM. For the molecule `Cc1nn2c(N3CCCC3)cc(C(C)C)nc2c1-c1ccccc1`, the PGE2 EC50 with compound is 0.84 nM.

As for `O=S(=O)(c1ccc(F)cc1)c1snnc1-c1ccccc1`, the PGE2 EC50 with compound was found to be 0.89 nM. The same measure, in the same setting: then `CC(=O)N1N=C2/C(=C/c3ccccc3)CCCC2C1c1ccccc1` (stereo unspecified), with 1.25 nM; and `Cc1cccc(OCC(=O)Nc2ccccc2-c2ccccc2)c1`, with 0.63 nM; and `Cc1ccc(N(C(=O)c2snc(C(N)=O)c2N)C(C(=O)NCCC(C)C)c2ccco2)cc1` (stereo unspecified), with 2.61 nM. The same measure, in the same setting: then `O=C(Nc1ccccc1N1CCCCC1)c1cccc(F)c1`, with 0.95 nM. Still for that read-out and setting: then `O=C(C(c1ccccc1)c1ccccc1)N1CCCc2ccccc21`, with 0.71 nM.

As to `FC(F)(F)c1nc(=S)c2ccccc2[nH]1`, the PGE2 EC50 with compound worked out at 2.84 nM. As for `Cc1ccc2c(c1)N(S(=O)(=O)c1ccc(F)cc1)C(C(C)(C)C)CO2` (stereo unspecified), the PGE2 EC50 with compound is 1.11 nM. Same read-out and setting: then `Cc1ccccc1N=C1SCC(=O)N1Cc1ccccc1`, with 1.2 nM. As to `CCOC(=O)c1c(NC(=O)c2ccc(Br)o2)sc(C)c1CC`, the PGE2 EC50 with compound came out at 0.94 nM. The same measure, in the same setting: then `CCC(=O)O[C@H]1CCC2C3CCC4=CC(=O)CC[C@]4(C)C3CC[C@@]21C` (stereo partly specified), with 0.76 nM. Turning to `O=c1c2ccccc2nc2n1C1(CCCCC1)Cc1ccccc1-2`, the PGE2 EC50 with compound was 0.95 nM. Same read-out and setting: then `O=C(Nc1nc(-c2cccs2)c(-c2ccccc2)s1)c1ccco1`, with 2.42 nM. Still for that read-out and setting: then `CN(Cc1cccs1)c1nc(-c2cccnc2)nc2ccccc12`, with 1.07 nM; and `COc1ccc(OC)c(C(=O)CSc2nnc(Cc3cccs3)n2CCc2ccccc2)c1`, with 1.33 nM. Still for that read-out and setting: then `CCOC(=O)c1ccccc1NC(=O)CSc1ncc(C(=O)OCC)c(N)n1`, with 0.96 nM. Turning to `O=C(/C(=C/O)N=Nc1ccccc1)c1cccs1`, the PGE2 EC50 with compound stood at 1.19 nM. On the same count and under the same terms, then `CC1(C)OC(c2ccccc2)=C/C(=C/C=Nc2ccccc2)O1`, with 0.99 nM; and `CCCCCc1ccc(-c2ccc(=O)[nH]n2)cc1`, with 1.44 nM. Still for that read-out and setting: then `CC(C)c1ccc(/C=N/Nc2cc(N3CCOCC3)nc(N3CCOCC3)n2)cc1`, with 0.98 nM. On the same count and under the same terms, then `Cn1c(=O)[nH]c(=O)c2c1nc(CN1CCN(c3cccc(Cl)c3)CC1)n2CCCc1ccccc1`, with 1.19 nM; and `O=C(Nc1cc(C(F)(F)F)ccc1-n1cncn1)c1ccc(-c2ccccc2)cc1`, with 1.15 nM; and `C=C(C)Cn1c(C)cc(C)c(S(=O)(=O)c2ccc(C)cc2)c1=O`, with 1.04 nM. For `CCCC(=O)N1CCCC(c2nc(-c3cccs3)no2)C1` (stereo unspecified), the PGE2 EC50 with compound came to 1.2 nM. On the same count and under the same terms, then `Nc1c(C(=O)NCc2ccco2)c2nc3ccccc3nc2n1CCc1ccccc1`, with 1.78 nM; and `COc1cccc(-c2nc(N3CC(C)CC(C)C3)c3ccccc3n2)c1O` (stereo unspecified), with 1.33 nM; and `O=C(Cc1ccc(Cl)cc1)Nc1ccccc1Sc1ccccc1`, with 1.07 nM.

For the molecule `Cc1ccc(C(=O)Nc2ccccc2C(=O)NCc2ccccc2)cc1`, the PGE2 EC50 with compound came to 1.42 nM. The same measure, in the same setting: then `Cc1ccc(C(=O)Nc2ccccc2N2CCCCC2)cc1[N+](=O)[O-]`, with 0.66 nM; and `Cc1onc(-c2c(F)cccc2Cl)c1C(=O)OCn1nnc2ccccc2c1=O`, with 0.92 nM. Same read-out and setting: then `O=C(O)c1nn(CC(=O)N(C2CCCCC2)C2CCCCC2)c(=O)c2ccccc12`, with 1.12 nM. For the molecule `CC1(C)Oc2ccc(C(=O)N3CCOCC3)cc2N(CC(=O)N2CCOCC2)C1=O`, the PGE2 EC50 with compound amounted to 1.69 nM. Regarding `CCN(Cc1ccccc1)C(c1cc2cc(C)cc(C)c2[nH]c1=O)c1nnnn1CCOC` (stereo unspecified), the PGE2 EC50 with compound was found to be 1.28 nM. On the same count and under the same terms, then `COC(=O)c1c(NC(=O)CSc2nnc(-c3ccco3)n2Cc2ccccc2)sc(C)c1C`, with 0.85 nM; and `O=C(Cc1ccc(F)cc1)Nc1ccccc1Sc1ccccc1`, with 0.7 nM. The same measure, in the same setting: then `CCOc1ccc(C2=Nn3c(nnc3-c3ccccc3OC)SC2)cc1`, with 0.91 nM; and `CCOc1ccccc1C(=O)Nc1ccccc1-c1ccccc1`, with 1.34 nM; and `Cn1c(=O)[nH]c(=O)c2c1nc(CN1CCN(c3cccc(Cl)c3)CC1)n2Cc1ccccc1Cl`, with 0.94 nM.

`COc1ccccc1/C=N/N(C(C)=O)c1nc(-c2ccc(F)cc2)cs1`: the PGE2 EC50 with compound turned out to be 1.1 nM. On the same count and under the same terms, then `CCC(=O)N1CCN(c2nc(-c3ccccc3)c3c(c2C#N)CCCC3)CC1`, with 0.91 nM.
